Columns and labels:
[1] = system: Bacteroides fragilis; experiment: Agar dilution test, other anaerobic organisms; format: cell-based; details: for MIC, AV (average): average of triplicate; for MIC, VAN-1: replicate 1; for MIC, VAN-2: replicate 2; for MIC, VAN-3: replicate 3
[2] = system: Bifidobacterium adolescentis; experiment: Agar dilution test, other anaerobic organisms; format: cell-based; details: for MIC, AV (average): average of triplicate; for MIC, VAN-1: replicate 1; for MIC, VAN-2: replicate 2; for MIC, VAN-3: replicate 3

## CN[C@H](CC(C)C)C(=O)N[C@H]1C(=O)N[C@@H](CC(N)=O)C(=O)N[C@H]2C(=O)N[C@H]3C(=O)N[C@H](C(=O)N[C@H](C(=O)O)c4cc(O)cc(O)c4-c4cc3ccc4O)[C@H](O)c3ccc(c(Cl)c3)Oc3cc2cc(c3O[C@@H]2O[C@H](CO)[C@@H](O)[C@H](O)[C@H]2O[C@H]2C[C@](C)(N)[C@H](O)[C@H](C)O2)Oc2ccc(cc2Cl)[C@H]1O.Cl [Sigma]
[1]; B. fragilis RMA 26978
  MIC, AV (average): >16 µg/mL
  MIC, VAN-1: >16 µg/mL
  MIC, VAN-2: >16 µg/mL
  MIC, VAN-3: >16 µg/mL
[1]; B. fragilis RMA 26979
  MIC, AV (average): >16 µg/mL
  MIC, VAN-1: >16 µg/mL
  MIC, VAN-2: >16 µg/mL
  MIC, VAN-3: >16 µg/mL
[1]; B. fragilis RMA 26980
  MIC, AV (average): >16 µg/mL
  MIC, VAN-1: >16 µg/mL
  MIC, VAN-2: >16 µg/mL
  MIC, VAN-3: >16 µg/mL
[1]; B. fragilis RMA 26981
  MIC, AV (average): >16 µg/mL
  MIC, VAN-1: >16 µg/mL
  MIC, VAN-2: >16 µg/mL
  MIC, VAN-3: >16 µg/mL
[1]; B. fragilis RMA 26982
  MIC, AV (average): >16 µg/mL
  MIC, VAN-1: >16 µg/mL
  MIC, VAN-2: >16 µg/mL
  MIC, VAN-3: >16 µg/mL
[2]; Bif. adolescentis RMA 21317
  MIC, AV (average): 1 µg/mL
  MIC, VAN-1: 1 µg/mL
  MIC, VAN-2: 1 µg/mL
  MIC, VAN-3: 1 µg/mL
[2]; Bif. adolescentis RMA 21531
  MIC, AV (average): 3 µg/mL
  MIC, VAN-1: 0.5 µg/mL
  MIC, VAN-2: 1 µg/mL
  MIC, VAN-3: 1 µg/mL
[2]; Bif. adolescentis RMA 21551
  MIC, AV (average): 1 µg/mL
  MIC, VAN-1: 1 µg/mL
  MIC, VAN-2: 1 µg/mL
  MIC, VAN-3: 1 µg/mL
[2]; Bif. adolescentis RMA 21680
  MIC, AV (average): 1 µg/mL
  MIC, VAN-1: 1 µg/mL
  MIC, VAN-2: 1 µg/mL
  MIC, VAN-3: 1 µg/mL
[2]; Bif. adolescentis RMA 21703
  MIC, AV (average): 1 µg/mL
  MIC, VAN-1: 1 µg/mL
  MIC, VAN-2: 1 µg/mL
  MIC, VAN-3: 1 µg/mL

Source: US20210038515A1 (Azurity Pharmaceuticals, Inc., priority 2014, published 2021)
